The subject of assay [1] is CCL17 secretion in peripheral human whole blood. Description: Human Whole Blood (HWB) CCL17 TR-FRET Assay (IL-13 stimulated CCL17 secretion). It is filed as cell-based. A digest of the protocol: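 Heparin-anticoagulated human blood; cpd 11-pt 3-fold dilution, duplicate, 2 h 37 °C preinc; IL-13 10 ng/mL final, 48 h 37 °C; spin, serum CCL17 by TR-FRET ELISA, 16 h RT, 665/615 ratio; IC50.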

The target in the next assay is T1, STAT6 (Homo sapiens, UniProt P42226).
T1 construct: stably transfected HaCaT keratinocyte cell line, which expresses NanoLuc luciferase reporter gene under the transcriptional control of the STAT6 responsive promoter; endogenous in cells; host or cells: HaCaT keratinocyte reporter cell line (stably transfected with a NanoLuc reporter)
T1 sequence (P42226 1-847): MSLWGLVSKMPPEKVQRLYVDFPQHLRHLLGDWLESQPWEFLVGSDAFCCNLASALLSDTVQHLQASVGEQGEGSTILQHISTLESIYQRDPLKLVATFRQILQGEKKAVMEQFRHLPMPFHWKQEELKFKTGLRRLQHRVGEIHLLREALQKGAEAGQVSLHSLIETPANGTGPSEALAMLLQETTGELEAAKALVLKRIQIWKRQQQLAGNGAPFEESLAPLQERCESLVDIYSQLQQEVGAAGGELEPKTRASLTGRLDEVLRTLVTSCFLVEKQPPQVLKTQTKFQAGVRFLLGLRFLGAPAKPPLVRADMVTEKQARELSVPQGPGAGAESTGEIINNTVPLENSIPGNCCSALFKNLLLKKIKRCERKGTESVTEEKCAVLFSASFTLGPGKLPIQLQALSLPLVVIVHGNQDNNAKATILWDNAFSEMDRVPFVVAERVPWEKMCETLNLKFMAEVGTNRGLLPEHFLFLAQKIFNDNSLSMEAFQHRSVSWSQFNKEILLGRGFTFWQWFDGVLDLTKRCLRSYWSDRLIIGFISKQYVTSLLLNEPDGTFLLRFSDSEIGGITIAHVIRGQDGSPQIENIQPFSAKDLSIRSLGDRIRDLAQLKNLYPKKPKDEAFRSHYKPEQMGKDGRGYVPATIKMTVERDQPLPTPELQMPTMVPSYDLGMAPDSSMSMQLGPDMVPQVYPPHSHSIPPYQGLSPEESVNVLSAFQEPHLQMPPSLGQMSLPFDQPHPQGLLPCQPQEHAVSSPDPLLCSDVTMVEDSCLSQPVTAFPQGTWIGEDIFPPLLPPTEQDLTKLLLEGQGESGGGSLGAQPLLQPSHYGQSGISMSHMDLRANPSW
Kind of assay: STAT6 Reporter Luciferase Assay (IL-13 stimulated HaCaT keratinocyte NanoLuc reporter cells). It is filed as cell-based. Particulars: read-out: Reporter EC50. A digest of the protocol: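 HaCaT IL-13Ra2-promoter NanoLuc reporter; cpd 2 h 37 °C in DMEM/2% HI FBS; IL-13 0.12 nM final, 4 h; Nano-Glo luminescence.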

Setting [2] is: Homo sapiens, 48 h, inhibition of CCL17 secretion in human whole blood, 10 ng/mL IL13, 48 hours.
[3] abbreviates: STAT6 NanoLuc luciferase reporter, IL-13 stimulated HaCaT keratinocyte cells.
The mark [4] stands for this setting: Homo sapiens, 48 h, human whole blood, IL-13 stimulated.
Where [5] appears, read: IL-13 stimulated HaCaT STAT6 NanoLuc reporter cells.

Like-named read-outs stand apart in the source and are kept apart here.

As a reminder, the IC50 is the midpoint of a concentration-inhibition curve. Low readings indicate inhibition by little substance, high ones a need for much substance. For orientation: EC50 means the concentration that produces a half-maximal response. `CC(C)n1nc(C(=O)NCc2ccc(NC(=O)N3CCO[C@@H](CO)C3)cc2)c2c1CCN(c1ccc(C(=O)N(C)C)cn1)C2` [Example 167, (R)-N-(4-((5-(5-(dimethylcarbamoyl)pyridin-2-yl)-1-isopropyl-4,5,6,7-tetrahydro-1H-pyrazolo[4,3-c]pyridine-3-carboxamido)methyl)phenyl)-2-(hydroxymethyl)morpholine-4-carboxamide]: the IC50 in assay [1] (setting [2]) stood at 0.154 µM. In addition, the half-maximal effective concentration (EC50) on STAT6 (setting [3]) was found to be 0.029 µM.
Taken in the same sequence, the figures for `CC(C)n1nc(C(=O)NCc2ccc(NC(=O)N(C)CC3COC3)cc2)c2c1CCN(c1ccc(C(=O)N(C)C)cn1)C2` [Example 168, 5-(5-(dimethylcarbamoyl)pyridin-2-yl)-1-isopropyl-N-(4-(3-methyl-3-(oxetan-3-ylmethyl)ureido)benzyl)-4,5,6,7-tetrahydro-1H-pyrazolo[4,3-c]pyridine-3-carboxamide] were 0.111 µM and 0.024 µM.
Taken in the same sequence, the figures for `CC(C)n1nc(C(=O)NCc2ccc(NC(=O)N[C@H]3C[C@@H](O)C3)cc2)c2c1CCN(c1ccc(C(=O)N(C)C)cn1)C2` [Example 169] were 0.125 µM and 0.032 µM.
In assay [1] (setting [2]), `CC(C)n1nc(C(=O)NCc2ccc(NC(=O)N3CC[C@H](N(C)C)C3)cc2)c2c1CCN(c1ccc(C(=O)N(C)C)cn1)C2` [Example 170, (S)-N-(4-(3-(dimethylamino)pyrrolidine-1-carboxamido)benzyl)-5-(5-(dimethylcarbamoyl)pyridin-2-yl)-1-isopropyl-4,5,6,7-tetrahydro-1H-pyrazolo[4,3-c]pyridine-3-carboxamide] yielded a half-inhibitory concentration (IC50) of 0.082 µM. For the same compound, the concentration for a half-maximal effect (EC50) on STAT6 (setting [3]) is 0.017 µM.
On the same counts, the results for `CC(C)n1nc(C(=O)NCc2ccc(NC(=O)N3CCC(C)(C#N)CC3)cc2)c2c1CCN(c1ccc(C(=O)N(C)C)cn1)C2` [Example 172, N-(4-(4-cyano-4-methylpiperidine-1-carboxamido)benzyl)-5-(5-(dimethylcarbamoyl)pyridin-2-yl)-1-isopropyl-4,5,6,7-tetrahydro-1H-pyrazolo[4,3-c]pyridine-3-carboxamide] are 0.15 µM and 0.011 µM.
In assay [1] (setting [2]), `CC(C)n1nc(C(=O)NCc2ccc(NC(=O)N3CCOCC3)cc2)c2c1CCN(c1ccc(C(=O)N(C)C)cn1)C2` [Example 173, N-(4-((5-(5-(dimethylcarbamoyl)pyridin-2-yl)-1-isopropyl-4,5,6,7-tetrahydro-1H-pyrazolo[4,3-c]pyridine-3-carboxamido)methyl)phenyl)morpholine-4-carboxamide] gave an IC50 of 0.072 µM. Further, on STAT6 (setting [3]), the EC50 came to 0.011 µM.
Taken in the same sequence, the figures for `CC(C)n1nc(C(=O)NCc2ccc(NC(=O)N3CCC(CO)CC3)cc2)c2c1CCN(c1ccc(C(=O)N(C)C)cn1)C2` [Example 175, 5-(5-(dimethylcarbamoyl)pyridin-2-yl)-N-(4-(4-(hydroxymethyl)piperidine-1-carboxamido)benzyl)-1-isopropyl-4,5,6,7-tetrahydro-1H-pyrazolo[4,3-c]pyridine-3-carboxamide] were 0.067 µM and 0.007 µM.
`CC(C)n1nc(C(=O)NCc2ccc(NC(=O)N3CCN(C)CC3)cc2)c2c1CCN(c1ccc(C(=O)N(C)C)cn1)C2` [Example 177, 5-(5-(dimethylcarbamoyl)pyridin-2-yl)-1-isopropyl-N-(4-(4-methylpiperazine-1-carboxamido)benzyl)-4,5,6,7-tetrahydro-1H-pyrazolo[4,3-c]pyridine-3-carboxamide] showed a half-maximal inhibitory concentration (IC50) in assay [1] (setting [2]) of 0.051 µM. Also, the EC50 at STAT6 (setting [3]) was 0.008 µM.
Consider `COCCNC(=O)Nc1ccc(CNC(=O)c2nn(C(C)C)c3c2CN(c2ccc(C(=O)N(C)C)cn2)CC3)cc1` [Example 178, 5-(5-(dimethylcarbamoyl)pyridin-2-yl)-1-isopropyl-N-(4-(3-(2-methoxyethyl)ureido)benzyl)-4,5,6,7-tetrahydro-1H-pyrazolo[4,3-c]pyridine-3-carboxamide], for which inhibition in assay [1] (setting [2]) was half-maximal at 0.045 µM (IC50). Further, the 50% effective concentration (EC50) on STAT6 (setting [3]) was 0.007 µM.
Compound `CO[C@@H]1CCN(C(=O)Nc2ccc(CNC(=O)c3nn(C(C)C)c4c3CN(c3ccc(C(=O)N(C)C)cn3)CC4)cc2)C1` [Example 179, (R)-5-(5-(dimethylcarbamoyl)pyridin-2-yl)-1-isopropyl-N-(4-(3-methoxypyrrolidine-1-carboxamido)benzyl)-4,5,6,7-tetrahydro-1H-pyrazolo[4,3-c]pyridine-3-carboxamide] showed an IC50 in assay [1] (setting [2]) of 0.064 µM. The half-maximal effective concentration (EC50) on STAT6 (setting [3]) amounted to 0.007 µM.
`CC(C)n1nc(C(=O)NCc2ccc(NC(=O)N(C)CCO)cc2)c2c1CCN(c1ccc(C(=O)N(C)C)cn1)C2` [Example 180, 5-(5-(dimethylcarbamoyl)pyridin-2-yl)-N-(4-(3-(2-hydroxyethyl)-3-methylureido)benzyl)-1-isopropyl-4,5,6,7-tetrahydro-1H-pyrazolo[4,3-c]pyridine-3-carboxamide] returned a half-maximal inhibitory concentration (IC50) in assay [1] (setting [2]) of 0.055 µM. Also, the half-maximal effective concentration (EC50) at STAT6 (setting [3]) is 0.018 µM.
In turn, `CC(C)n1nc(C(=O)NCc2ccc(NC(=O)NCC3COC3)cc2)c2c1CCN(c1ccc(C(=O)N(C)C)cn1)C2` [Example 181, 5-(5-(dimethylcarbamoyl)pyridin-2-yl)-1-isopropyl-N-(4-(3-(oxetan-3-ylmethyl)ureido)benzyl)-4,5,6,7-tetrahydro-1H-pyrazolo[4,3-c]pyridine-3-carboxamide] had a half-maximal inhibitory concentration (IC50) in assay [1] (setting [2]) of 0.436 µM. The 50% effective concentration (EC50) on STAT6 (setting [3]) was 0.26 µM.
With `CC(C)n1nc(C(=O)NCc2ccc(NC(=O)N3CC[C@H](C#N)C3)cc2)c2c1CCN(c1ccc(C(=O)N(C)C)cn1)C2` [Example 182, (S)-N-(4-(3-cyanopyrrolidine-1-carboxamido)benzyl)-5-(5-(dimethylcarbamoyl)pyridin-2-yl)-1-isopropyl-4,5,6,7-tetrahydro-1H-pyrazolo[4,3-c]pyridine-3-carboxamide], in assay [1] (setting [4]), inhibition was half-maximal at 0.131 µM (IC50). Also, at STAT6 (setting [5]), the EC50 came out at 0.017 µM.
On the same counts, the results for `CC(C)n1nc(C(=O)NCc2ccc(NC(=O)N3CC[C@@H](C#N)C3)cc2)c2c1CCN(c1ccc(C(=O)N(C)C)cn1)C2` [Example 183, (R)-N-(4-(3-cyanopyrrolidine-1-carboxamido)benzyl)-5-(5-(dimethylcarbamoyl)pyridin-2-yl)-1-isopropyl-4,5,6,7-tetrahydro-1H-pyrazolo[4,3-c]pyridine-3-carboxamide] are 0.067 µM and 0.016 µM.
`CC(C)n1nc(C(=O)NCc2ccc(NC(=O)N3CC4CC(C3)O4)cc2)c2c1CCN(c1ccc(C(=O)N(C)C)cn1)C2` [Example 184, N-(4-((5-(5-(dimethylcarbamoyl)pyridin-2-yl)-1-isopropyl-4,5,6,7-tetrahydro-1H-pyrazolo[4,3-c]pyridine-3-carboxamido)methyl)phenyl)-6-oxa-3-azabicyclo[3.1.1]heptane-3-carboxamide]: half-maximal inhibition in assay [1] (human whole blood, IL-13 stimulated, 48 hours) (IC50) required 0.092 µM. Also, the 50% effective concentration (EC50) on STAT6 (setting [5]) stood at 0.027 µM.
As for `CC(C)n1nc(C(=O)NCc2ccc(NC(=O)N3CC(C)(O)C3)cc2)c2c1CCN(c1ccc(C(=O)N(C)C)cn1)C2` [Example 185, 5-(5-(dimethylcarbamoyl)pyridin-2-yl)-N-(4-(3-hydroxy-3-methylazetidine-1-carboxamido)benzyl)-1-isopropyl-4,5,6,7-tetrahydro-1H-pyrazolo[4,3-c]pyridine-3-carboxamide], in assay [1] (setting [4]), 0.083 µM corresponded to half-maximal inhibition (IC50). For the same compound, the EC50 on STAT6 (setting [5]) was determined as 0.024 µM.
In turn, `CC(C)n1nc(C(=O)NCc2ccc(NC(=O)N(C)[C@H]3CCOC3)cc2)c2c1CCN(c1ccc(C(=O)N(C)C)cn1)C2` [Example 187, (S)-5-(5-(dimethylcarbamoyl)pyridin-2-yl)-1-isopropyl-N-(4-(3-methyl-3-(tetrahydrofuran-3-yl)ureido)benzyl)-4,5,6,7-tetrahydro-1H-pyrazolo[4,3-c]pyridine-3-carboxamide] had an IC50 in assay [1] (setting [4]) of 0.041 µM. For the same compound, the EC50 at STAT6 (setting [5]) came out at 0.015 µM.
In assay [1] (setting [4]), `COC1CN(C(=O)Nc2ccc(CNC(=O)c3nn(C(C)C)c4c3CN(c3ccc(C(=O)N(C)C)cn3)CC4)cc2)C1` [Example 188, 5-(5-(dimethylcarbamoyl)pyridin-2-yl)-1-isopropyl-N-(4-(3-methoxyazetidine-1-carboxamido)benzyl)-4,5,6,7-tetrahydro-1H-pyrazolo[4,3-c]pyridine-3-carboxamide] registered an IC50 of 0.069 µM. On STAT6 (setting [5]), the concentration for a half-maximal effect (EC50) was 0.011 µM.

(Values after patent publication US20250320213A1, “Nitrogen-Containing Heterocyclic Compounds” (Pfizer Inc., priority 2024, published 2025).)
